In test [1] the test system is Lgr5+ stem cells in small intestinal crypts. In words: Small intestinal crypt culture from Lgr5-GFP mice in Matrigel: cell proliferation and Lgr5-GFP expression. The test is classed as cell-based, mouse. As to conditions: for effect to promote GFP expression: HDAC inhibitor added to ENR-C condition, 6 day crypt cultures, compared with VPA. The protocol:
Crypts and single Lgr5-GFP cells were isolated as previously described (Sato et al., 2009). Briefly, the proximal half of the small intestine was harvested, opened longitudinally, and washed with cold PBS to remove luminal content. The tissue was then cut into 2-4 mm pieces with scissors and further washed 5-10 times with cold PBS by pipetting up and down using a 10-ml pipette. Tissue fragments were incubated with 2 mM EDTA in PBS for 30 min on ice. After removal of EDTA, tissue fragments were washed with PBS to release crypts. Supernatant fractions enriched in crypts were collected, passed through a 70 μm cell strainer and centrifuged at 300 g for 5 minutes. The cell pellet was re-suspended with cell culture media without growth factors and centrifuged at 150 g to remove single cells. Crypts were then cultured or used for single cell isolation. To obtain single cells, crypts were incubated in culture medium for 45 minutes at 37° C. and triturated with a glass pipette. Dissociated cells were passed through 20 μm cell strainer, negative stained with propidium iodide and single viable GFP-high cells were sorted by flow cytometry (FACS Aria, BD) as previously described (Sato et al., 2009). Small intestinal crypts isolated from Lgr5-EGFP-ires-CreERT2 mice were embedded in Matrigel and cultured under conventional culture conditions in the presence of EGF, Noggin and R-spondin 1 (collectively referred to as ENR) leading to organoids with crypts and villus-like domains and GFP^+ cells at the crypt tips, consistent with previous reports (Sato et al., 2009). Isolated crypts or single cells were cultured as previously described (Sato et al., 2009) with minimal modification. Briefly, crypts or single cells were entrapped in Matrigel and plated at the center of wells in a 24-well plate. After polymerization of Matrigel (growth factor reduced; BD Bioscience), 500 μl of culture medium (Advanced DMEM/F12 (Life Technologies)) was added containing growth factors including EGF (50 ng/ml, Life Technologies), Noggin (100 ng/ml, Peprotech) and R-spondin 1 (500 ng/ml, R&D) and small molecules including CHIR99021 (3 μM, Stemgent) and Valproic Acid (1 mM, Sigma-Aldrich). For comparison of different culture conditions, small molecules or growth factors were added to freshly isolated crypts immediately after plating in Matrigel to test the ability to minimize potential differentiation of the ISC within the crypts and thus sustain crypt cultures. Cell culture media was changed every other day. For single cell culture, cells were embedded in Matrigel containing Jagged-1 peptide (1 μM; AnaSpec) and Y-27632 (10 μM; Tocris) was added for the first 2 days. Cells were passaged either as cell colonies as previously described (Sato et al., 2009) or as single cells. For single cell passage, cell culture medium was removed and Accutase (Life Technologies) was added. After incubation at 37° C. for 10-20 minutes, cell colonies were dissociated into single cells by pipetting. Cells were then washed, embedded in fresh Matrigel and plated into 24-well plates. Cells cultured in the CV condition were passaged every 6 days at a 1:20 split ratio. Approximately half of the cultured crypts contained GFP+ cells, which is consistent with the in vivo GFP expression of Lgr5-GFP mice (FIG. 1).
The growth factors used in the ENR condition provide essential, but not adequate cues to sustain the self-renewal of Lgr5^+ stem cells. To identify factors essential to maintaining the self-renewal status of intestinal stem cells, selected small molecules that modulate signaling pathways of ISCs, such as Wnt, Notch, and BMP, were tested under the ENR condition, using the Lgr5-GFP reporter.
CHIR is a highly-specific GSK3 inhibitor that activates the Wnt/β-catenin signaling pathway (Bain et al., 2007), and has been used to maintain the self-renewal state of embryonic stem cells (Ying et al., 2008). […]

Test [2] deals with human small intestinal crypts. The test can be described thus: Culture of human small intestinal crypts: LGR5 expression (RT-PCR) and cell number. It counts as cell-based. An excerpt:
Human small intestinal crypts were isolated from a resected normal small intestinal specimen and cultured as described in Example 1. The same cell culture solutions used in the culture of mouse small intestinal stem cells/crypts, which comprise a combination of CHIR99021 and VPA or Tubastatin A added to the ENR (EGF, Noggin, R-Spondin 1) condition, were compared to published cell culture solutions for human intestinal stem cells/crypts (Jung et al., 2011; Sato et al., 2011). RT-PCR was used to assess the maintenance of epithelial stem cells in the culture, specifically by determining the self-renewal or differentiation status. LGR5 was used as a stem cell marker and ALPI, MUC2, CHGA and LYZ were used as differentiation markers. Cell growth was assessed by counting the cell number in the cultures and by observing the morphology and size of colonies.

For test [3], the system named is Lgr5+ stem cells. The test can be described thus: Controlled differentiation of Lgr5+ stem cells after CV culture (RT-PCR and staining of differentiation markers). It counts as cell-based, mouse. The note with it: colonies from 6 days CV, then 4 days with ENR plus agents (FIG. 7B).
Test [4] relates to Lgr5+ stem/progenitor cells derived from the mouse inner ear. In words: Culture of inner ear (cochlear) Lgr5-GFP epithelial cells in Matrigel. The test is classed as cell-based. As to conditions: 8 day cultures; for GFP expression on addition of a growth factor: added to EGF+CV or to the EGF+bFGF combination (FIG. 14D, 14E); for cell proliferation on addition of a growth factor: EGF added to CV, others added to EGF+CV (FIG. 14D). From the text:
The same culture condition (EGF, Noggin, R-spondin1, or “ENR”) as used in Lgr5+ small intestinal stem cell cultures was first established.
Isolated organ of Corti from Lgr5-GFP mice were dissociated into single cells using accutase and cultured in multiple combinations of soluble factors and small molecules in Matrigel for 8 days. The resulting cultures were further dissociated into single cells and analyzed using FACS. […] In addition, the combination of EGF, bFGF and IGF-1 (designated as EFI) improved cell proliferation and GFP expression compared with the ENR condition (FIG. 14A-14C).
To further investigate the effects of individual growth factors when combined with CHIR and VPA, growth factors including Mitogenic growth factors (EGF, bFGF and IGF-1) as well as the Wnt agonist R-spondin 1 in combination with CHIR and VPA were tested.

The mark [5] stands for this setting: combined with CHIR or Wnt3a, crypts 6 days (FIG. 9F).
[6] abbreviates: ENR-C condition with DAPT 5 μM, 3 days.
[7] abbreviates: multiple concentrations (FIG. 9E).

12 molecules from patent publication US10041047B2, “Compositions and methods for epithelial stem cell expansion and culture” (The Brigham and Women's Hospital, Inc., priority 2013, dated 2018) can be followed below.

On to `CC(=O)Nc1ccc(C(=O)Nc2ccccc2N)cc1` [CI-994], for which the “effect to promote GFP expression” value in test [1] is given as “no or only moderate effects”.
Turning to `NC(=O)c1cccnc1` [Nicotinamide], in test [1], the “effect to promote GFP expression” value is “no or only moderate effects”. In test [1] (setting [5]), the GFP expression result is on record as “did not promote” and the cell proliferation result is “did not promote”. In test [2] (added to ENR (or to the CHIR+VPA condition), RT-PCR), the “expression of stem cell marker LGR5” value was “without great impact”. For the same molecule, the “proliferation of human small intestinal crypts (cell number)” value in test [2] (cell numbers at day 9 after seeding (FIG. 25A)) is “increased the proliferation”.
Take `CCCC(=O)[O-].[Na+]` [Butyrate, Sodium butyrate]: in test [1], the “effect to promote GFP expression” value is “no or only moderate effects”.
On the same count and under the same terms, in the case of `O=C(CCCCCCC(=O)NO)NO` [SBHA, Suberohydroxamic acid] it was “no or only moderate effects”.
`Cc1ccc2nc(NC(=O)CSc3nc4c(c(=O)n3-c3ccccc3)SCC4)sc2c1` [IWP-2, N-(6-Methyl-2-benzothiazolyl)-2-[(3,4,6,7-tetrahydro-4-oxo-3-phenylthieno[3,2-d]pyrimidin-2-yl)thio]-acetamide]: in test [3], the Alpi expression result was “preferentially induced”, the ChgA expression entry was “modestly elevated”, the Lgr5 expression entry is listed as “completely abolished” and the Lysozyme expression entry is “completely abolished”. Besides, the Muc2 expression entry in test [3] is “modestly elevated”.
Consider IGF-1: mitogenic growth factor, for which the “GFP expression on addition of a growth factor” value in test [4] was “slightly increased”.
For the molecule `Nc1ccccc1NC(=O)c1ccc(CNC(=O)OCc2cccnc2)cc1` [MS275], in test [1], the “effect to promote GFP expression” value is “no or only moderate effects”.
With EGF: Epidermal Growth Factor, the “requirement of growth factor to maintain self-renewal of Lgr5+ stem cells” value in test [1] (crypts 6 days in the CV condition (CHIR 3 μM, VPA 1 mM)) is recorded as “could be removed from the culture without impacting maintenance”. The proliferation of crypts entry in test [1] (growth factor in the CV condition, 6 days) is “promoted the proliferation”. The “cell proliferation on addition of a growth factor” value in test [4] is given as “greatly increased”.
Consider `Cn1c(/C=C/C(=O)NO)ccc1/C=C/C(=O)c1cccc(F)c1` [MC1568], for which the “effect to promote GFP expression” value in test [1] is listed as “no or only moderate effects”.
Turning to `C[C@H](NC(=O)Cc1cc(F)cc(F)c1)C(=O)N[C@H](C(=O)OC(C)(C)C)c1ccccc1` [DAPT, N-[N-(3,5-Difluorophenacetyl)-L-alanyl]-S-phenylglycine t-butyl ester], in test [1] (setting [6]), the GFP expression entry is listed as “impaired” and the cell proliferation entry was “impaired”. In test [3], the Alpi expression entry was “induced expression”, the ChgA expression entry is reported as “greatly elevated”, the Lgr5 expression entry is recorded as “decreased” and the Lysozyme expression result is “greatly elevated”. Further, in test [3], the Muc2 expression entry is “greatly elevated”.
As to bFGF: mitogenic growth factor, in test [4], the “cell proliferation on addition of a growth factor” value was “further increased” and the “GFP expression on addition of a growth factor” value was “further increased”.
Regarding `CC(/C=C/C(=O)NO)=C\[C@@H](C)C(=O)c1ccc(N(C)C)cc1` [TSA, Trichostatin A], in test [1] (setting [7]), the “GFP expression at multiple concentrations” value is reported as “maintained GFP expression” and the “cell proliferation at higher concentration” value is on record as “marked proliferation inhibition effect”.
